Data taken from patent US20260152503A1, “SPIROBICYCLIC COMPOUNDS” (ACERAND THERAPEUTICS (HONG KONG) LIMITED, priority 2022, published 2026).

What was measured:
Ba/F3 FGFR2-N549K = molecular target: T1, Ba/F3 FGFR2-N549K (Homo sapiens, UniProt P21802, N549K, cells depend on it); assay: 2D cell proliferation assay, Ba/F3 FGFR2-N549K; assay type: cell-based, mouse; settings: 96 hours, CTG, read-out: Cell Line, IC50 Ba/F3 FGFR2-N549K
T1 construct: fused on or other part: Q9H694 (Protein bicaudal C homolog 1)
Procedure: (§1) Low IC50 values are indicative of the high potency of the FGFR inhibitor compounds in this assay selling. […] Cell proliferation assays are performed in two-dimensional (2D)) anchorage-dependent conditions in 96 well plates (Corning® Black/Clear flat Bottom, Cat #3603) with the following cell lines: • Ba/F3 FGFR2-BICC1 (human […]): Mouse Ba/F3 cell line stably expressed exogenous human FGFR2-BICC1 fusion gene bearing V546F mutation in FGFR2 Ba/F3; • FGFR2-BICC1 (human FGFR2/[…]): Mouse Ba/F3 cell line stably expressed exogenous human FGFR2-BICC1 fusion gene bearing N549K mutation in FGFR2; • Snu-16: human gastric cancer cell with FGFR2 amplification; • KATO III: human gastric cancer cell with FGFR2 amplification; • AN3CA: Human endometrial cancer with FGFR2 mutation (k310R, N549K); • MFM-223: Human breast cancer with FGFR1/2 amplification; • MFE-296: Human endometrial cancer with FGFR2 mutation (N549K); • MFE-280: Human endometrial cancer with FGFR2 mutation ([…]); • NCI-H1581: human non-small cell lung cancer with FGFR1 amplification; • KG-1a: Acute myelogenous leukemia with FGFR1OP2-FGFR1 translocation; • DMS114: human small cell carcinoma of the lung with FGFR1 amplification; • RT112: human bladder cancer with FGFR3 overexpression/FGFR3-TACC3 fusion; • SW780: human bladder cancer with FGFR3 overexpression/FGFR3-BALAP2L1 fusion; • Hep3B: Liver cancer with FGF19 amplification (FGFR4 ligand); • AGS: Human gastric adenocarcinoma with Kras G12D mutation and FGFR wild type; • PC-9: human non-small cell lung cancer (NSCLC) with wild-type FGFR and an EGFR del19 mutation; or • H1975: human non-small cell lung cancer (NSCLC) with wild-type FGFR and EGFR L858R/T790M mutation.
(§2) Cell lines are purchased from the American Type Culture Collection (ATCC) or Sigma. All cell lines are maintained in RPMI-1640 or DMEM supplemented with 10% heat-inactivated fetal bovine serum.
(§3) Cells growing in the log phase are detached with Gibco™ TrypLE™ Express Enzyme and plated in 96 well plate at 3000 to 5000 cells/well in 100 μl of media. After overnight incubation at 37° C., 5% CO2 incubator, cells are treated with compounds (50 uL/well) at the final concentrations spanning from 0.000038 uM to 10 μM (4-fold serial dilution for total of 10 points). Cells are incubated at 37° C., 5% CO2, and 95% humidity incubator for 96 hours. At the end of incubation 2D CTG reagent from Promega was added to each well according to vendors recommendation and mixed for 10 min in dark. The luminescence signals are determined with a Biotek™ plate reader. Data is fitted using a sigmoidal curve analysis program (GraphPad Prism®) with variable hill slope and IC50 is determined.

FGFR3 = molecular target: T2, FGFR3 (Homo sapiens, UniProt P22607); assay: pERK potency assay (In Cell ELISA), RT112 cells; assay type: cell-based; settings: RT112 (FGFR3 overexpression/FGFR3-TACC3 fusion) cells, 3 hours
T2 construct: RT112 (FGFR3 overexpression/FGFR3-TACC3 fusion); host or cells: RT112; the other entry of the earlier key: TACC3 (Q9Y6A5, Transforming acidic coiled-coil-containing protein 3)
Excerpt: (§4) The purpose of this assay is to measure the ability of test compounds to inhibit FGFR mediated downstream signaling cascades, i.e., ERK phosphorylation in cells with FGFR aberrations. FGFR aberrations become constitutively active and thus induces cascades of cellular signaling events that result in increased phosphorylation of ERK at Threonine 202 and Tyrosine 204 (pERK). The procedure called In Cell ELISA described below measures the level of cellular pERK in response to FGFR specific inhibitor compounds in FGFR aberrations of AN3CA (FGFR2/k310R, N549K), DMS114 (FGFR1 amplification), RT112 (FGFR3 overexpression/FGFR3-TACC3 fusion) and Hep3B (FGF19 amplification) cells. AN3CA, DMS114 and Hep3B cells are from ATCC. RT112 cells are from Sigma. DMS114 cells are grown and maintained using RPMI-1640 medium supplemented with 10% heat-inactivated fetal bovine serum. AN3CA, Hep3B and RT112 cells are grown and maintained using DMEM supplemented with 10% heat-inactivated fetal bovine serum. On the day before test compound addition, cells are plated in poly-D-lysine coated 96-well cell culture plates (Corning® BioCoat® Cat #356640) at 40000 cells/well/100 μL and grown overnight in a 37° C., 5% CO2 incubator. Test compounds are prepared with 4-fold serial dilutions in DMSO, with a top concentration of 10 μM. On the day of the assay, 50 μL of test compound diluted in media was added to each well of cell culture plate with the final concentration of compounds spanning from 0.000038 μM to 10 μM. After compound addition, cells are incubated for 3 hours at 37° C., 5% CO2 and then the culture medium is removed. Cells are fixed with 4% formaldehyde in phosphate-buffered saline (PBS) and incubated at RT for 20 min. The plate is then washed three times with PBST (PBS with 0.05% tween-20), followed by the incubation with 100 μL of pre-cooled methanol at −20° C. for 20 min. After incubation, methanol is removed, and the plate is washed once with PBST. Cells are permeabilized with 100 µL/well of 0.1% Triton X-100 in PBS at RT for 20 min and then quenched with quenching buffer (PBST containing 1% H2O2 and 0.1% sodium azide) for 20 min at RT with gentle shaking. After washing once with PBST, blocking buffer (250 ul/well, Pierce™ Protein-Free-PBS Blocking Buffer, Cat #37572) was then added to the cells for 1-h incubation at RT, followed by anti-pERK antibody (cell signaling, 1:1000 dilution in 5% BSA in PBST) incubation overnight at 4° C. and secondary antibody-HRP (Jackson immunoresearch, 1:3000 dilution in 5% BSA in PBST) incubation at RT for 1 h. PBST wash is carried out after each step three times. Before the addition of the substrate (Advansta ELISABright), the plate is washed with PBS twice to remove detergent residues. Cellular pERK level is determined using the microplate reader (Biotek Synergy H1) to detect the chemiluminescence signal. IC50 is determined by fitting a 4-parameter sigmoidal concentration-response model. FGFR wild type cells (H1975, PC-9 and AGS) are used to serve as negative control (FGFR selectivity) with the same assay procedures described above.

FGFR1 = molecular target: T3, FGFR1 (Homo sapiens, UniProt P11362); assay: pERK potency assay (In Cell ELISA), DMS114 cells; assay type: cell-based; settings: DMS114 (FGFR1 amplification) cells, 3 hours
T3 construct: DMS114 (FGFR1 amplification); host or cells: DMS114
Excerpt: as §4

Ba/F3 FGFR2-V564F = molecular target: T4, Ba/F3 FGFR2-V564F (Homo sapiens, UniProt P21802, V564F, cells depend on it); assay: 2D cell proliferation assay, Ba/F3 FGFR2-V564F; assay type: cell-based, mouse; settings: 96 hours, CTG, read-out: Cell Line, IC50 Ba/F3 FGFR2-V564F
T4 construct: fused on or other part: Q9H694 (Protein bicaudal C homolog 1)
Procedure: as §1, §2, §3

FGFR2 = molecular target: T5, FGFR2 (Homo sapiens, UniProt P21802, K310R/N549K); assay: pERK potency assay (In Cell ELISA), AN3CA cells; assay type: cell-based; settings: for IC50: pERK, AN3CA (FGFR2/k310R, N549K) cells, 3 hours; for FGFR1 IC50/FGFR2 IC50 / FGFR3 IC50/FGFR2 IC50: selectivity ratio, pERK potency; for FGFR1 IC50/FGFR2 IC50: FGFR2 relative to FGFR1; for FGFR3 IC50/FGFR2 IC50: FGFR2 relative to FGFR3
T5 construct: in FGFR aberrations of AN3CA (FGFR2/k310R, N549K); host or cells: AN3CA
Excerpt: as §4

T5 sequence (P21802 22-821 K310R/N549K): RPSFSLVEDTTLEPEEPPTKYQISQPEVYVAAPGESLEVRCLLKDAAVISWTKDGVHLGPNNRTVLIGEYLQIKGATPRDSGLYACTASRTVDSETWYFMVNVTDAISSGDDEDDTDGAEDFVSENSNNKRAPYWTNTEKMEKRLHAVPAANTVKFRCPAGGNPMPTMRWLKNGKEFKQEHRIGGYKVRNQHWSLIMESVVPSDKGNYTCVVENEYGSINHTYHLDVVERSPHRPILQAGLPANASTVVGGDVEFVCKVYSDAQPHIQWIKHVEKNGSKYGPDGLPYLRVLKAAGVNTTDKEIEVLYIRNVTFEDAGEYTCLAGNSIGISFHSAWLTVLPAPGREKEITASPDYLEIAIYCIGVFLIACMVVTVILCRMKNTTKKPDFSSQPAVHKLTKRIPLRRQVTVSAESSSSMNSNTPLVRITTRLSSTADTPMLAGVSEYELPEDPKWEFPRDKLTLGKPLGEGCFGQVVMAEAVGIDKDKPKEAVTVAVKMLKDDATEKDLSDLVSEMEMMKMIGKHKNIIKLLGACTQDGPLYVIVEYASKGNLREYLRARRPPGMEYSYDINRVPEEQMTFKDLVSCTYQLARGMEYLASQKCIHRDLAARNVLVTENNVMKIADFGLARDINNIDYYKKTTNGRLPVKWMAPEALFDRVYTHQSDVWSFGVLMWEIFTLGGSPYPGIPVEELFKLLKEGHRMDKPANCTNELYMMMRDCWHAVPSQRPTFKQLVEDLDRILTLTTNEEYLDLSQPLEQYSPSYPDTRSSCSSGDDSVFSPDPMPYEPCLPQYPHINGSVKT
T1 sequence (P21802 whole entry N549K, the tested form may be a part): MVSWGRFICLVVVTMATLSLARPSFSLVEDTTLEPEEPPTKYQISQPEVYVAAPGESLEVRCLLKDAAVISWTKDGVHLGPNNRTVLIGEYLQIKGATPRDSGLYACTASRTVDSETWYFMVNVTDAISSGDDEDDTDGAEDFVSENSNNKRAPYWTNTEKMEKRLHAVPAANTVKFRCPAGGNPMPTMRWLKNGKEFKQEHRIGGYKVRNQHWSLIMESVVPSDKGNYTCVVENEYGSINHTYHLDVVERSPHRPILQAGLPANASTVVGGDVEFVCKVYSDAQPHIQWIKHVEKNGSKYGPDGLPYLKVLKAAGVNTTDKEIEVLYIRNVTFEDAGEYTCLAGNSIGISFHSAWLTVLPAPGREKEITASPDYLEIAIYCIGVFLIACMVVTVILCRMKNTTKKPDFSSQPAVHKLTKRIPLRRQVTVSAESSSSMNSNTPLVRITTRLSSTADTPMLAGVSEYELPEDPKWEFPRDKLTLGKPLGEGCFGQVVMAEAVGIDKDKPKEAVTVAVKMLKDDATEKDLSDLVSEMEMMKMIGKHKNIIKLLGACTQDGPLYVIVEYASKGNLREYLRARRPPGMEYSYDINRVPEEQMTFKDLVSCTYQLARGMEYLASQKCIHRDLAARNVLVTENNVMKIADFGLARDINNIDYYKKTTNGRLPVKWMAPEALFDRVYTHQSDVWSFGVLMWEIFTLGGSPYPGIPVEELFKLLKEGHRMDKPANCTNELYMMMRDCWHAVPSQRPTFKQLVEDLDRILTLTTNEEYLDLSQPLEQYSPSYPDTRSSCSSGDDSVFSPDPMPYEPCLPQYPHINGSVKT
T3 sequence (P11362 22-822): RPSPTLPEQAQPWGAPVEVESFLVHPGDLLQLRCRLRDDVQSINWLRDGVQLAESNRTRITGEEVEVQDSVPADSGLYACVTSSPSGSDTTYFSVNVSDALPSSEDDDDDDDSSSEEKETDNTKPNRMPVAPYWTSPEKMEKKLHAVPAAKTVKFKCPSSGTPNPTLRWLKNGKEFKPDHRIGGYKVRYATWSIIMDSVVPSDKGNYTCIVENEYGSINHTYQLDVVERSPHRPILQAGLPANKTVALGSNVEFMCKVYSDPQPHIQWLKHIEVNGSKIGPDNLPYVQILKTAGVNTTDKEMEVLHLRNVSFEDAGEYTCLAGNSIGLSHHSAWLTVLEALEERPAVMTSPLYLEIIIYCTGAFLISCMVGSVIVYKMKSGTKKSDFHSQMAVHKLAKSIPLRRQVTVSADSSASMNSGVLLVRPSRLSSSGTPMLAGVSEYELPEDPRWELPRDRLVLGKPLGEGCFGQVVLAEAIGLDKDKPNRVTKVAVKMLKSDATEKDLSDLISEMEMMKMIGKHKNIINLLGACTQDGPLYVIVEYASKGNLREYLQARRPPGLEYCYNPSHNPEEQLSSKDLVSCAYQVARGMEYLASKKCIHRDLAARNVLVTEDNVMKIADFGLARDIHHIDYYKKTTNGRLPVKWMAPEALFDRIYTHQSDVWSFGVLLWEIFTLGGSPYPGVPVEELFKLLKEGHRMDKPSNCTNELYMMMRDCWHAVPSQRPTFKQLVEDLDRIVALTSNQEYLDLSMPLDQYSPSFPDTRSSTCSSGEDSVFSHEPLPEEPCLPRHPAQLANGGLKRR
T4 sequence (P21802 whole entry V564F, the tested form may be a part): as the sequence (P21802 whole entry N549K, the tested form may be a part) above, with K549N, V564F counted along it

Row | SMILES | GI50 (Ba/F3 FGFR2-N549K) [nM] | IC50 (FGFR3) [nM] | IC50 (FGFR1) [nM] | GI50 (Ba/F3 FGFR2-V564F) [nM] | IC50 (FGFR2) [nM] | FGFR1 IC50/FGFR2 IC50 (FGFR2) | FGFR3 IC50/FGFR2 IC50 (FGFR2)
1 | C=CC(=O)N1CCC2(CC=C(c3c(-c4ncc(OC)cn4)c4c(N)ncnc4n3C)CC2)CC1 [Example 43, 1-(9-(4-amino-5-(5-methoxypyrimidin-2-yl)-7-methyl-7H-pyrrolo[2,3-d]pyrimidin-6-yl)-3-azaspiro[5.5]undec-8-en-3-yl)prop-2-en-1-one] | 1 to 10 | > 100 | > 100 | ≤ 1 | ≤ 1 | H (a selectivity ratio greater than 500 but less than or equal to 1000) | J (a selectivity ratio greater than 2000)
2 | C=CC(=O)N1CCC2(CC=C(c3c(-c4ncc(F)cn4)c4c(N)ncnc4n3C)CC2)CC1 [Example 44, 1-(9-(4-amino-5-(5-fluoropyrimidin-2-yl)-7-methyl-7H-pyrrolo[2,3-d]pyrimidin-6-yl)-3-azaspiro[5.5]undec-8-en-3-yl)prop-2-en-1-one] | 1 to 10 | > 100 | > 100 | ≤ 1 | 1 to 10 | H (a selectivity ratio greater than 500 but less than or equal to 1000) | J (a selectivity ratio greater than 2000)
3 | C=CC(=O)N1CCC2(CC=C(c3c(-c4ncc(C5CC5)cn4)c4c(N)ncnc4n3C)CC2)CC1 [Example 45, 1-(9-(4-amino-5-(5-cyclopropylpyrimidin-2-yl)-7-methyl-7H-pyrrolo[2,3-d]pyrimidin-6-yl)-3-azaspiro[5.5]undec-8-en-3-yl)prop-2-en-1-one] | 1 to 10 | > 100 | > 100 | 1 to 10 | ≤ 1 | G (a selectivity ratio greater than 150 but less than or equal to 500) | H (a selectivity ratio greater than 500 but less than or equal to 1000)
4 | C=CC(=O)N1CCC2(CC=C(c3c(-c4ncc(OC5CCOC5)cn4)c4c(N)ncnc4n3C)CC2)CC1 (centres unmarked) [Example 47, 1-(9-(4-amino-7-methyl-5-(5-((tetrahydrofuran-3-yl)oxy)pyrimidin-2-yl)-7H-pyrrolo[2,3-d]pyrimidin-6-yl)-3-azaspiro[5.5]undec-8-en-3-yl)prop-2-en-1-one] | > 100 | > 100 | > 100 | > 100 | ≤ 1 | G (a selectivity ratio greater than 150 but less than or equal to 500) | I (a selectivity ratio greater than 1000 but less than or equal to 2000)
5 | C=CC(=O)N1CCC2(CC=C(c3c(-c4ncc(OC5CC5)cn4)c4c(N)ncnc4n3C)CC2)CC1 [Example 50, 1-(9-(4-amino-5-(5-cyclopropoxypyrimidin-2-yl)-7-methyl-7H-pyrrolo[2,3-d]pyrimidin-6-yl)-3-azaspiro[5.5]undec-8-en-3-yl)prop-2-en-1-one] | 1 to 10 | > 100 | > 100 | ≤ 1 | ≤ 1 | G (a selectivity ratio greater than 150 but less than or equal to 500) | I (a selectivity ratio greater than 1000 but less than or equal to 2000)
6 | C=CC(=O)N1CCC2(CC=C(c3c(-c4ncc(C5CCOC5)cn4)c4c(N)ncnc4n3C)CC2)CC1 (centres unmarked) [Example 52, 1-(9-(4-amino-7-methyl-5-(5-(tetrahydrofuran-3-yl)pyrimidin-2-yl)-7H-pyrrolo[2,3-d]pyrimidin-6-yl)-3-azaspiro[5.5]undec-8-en-3-yl)prop-2-en-1-one] | 1 to 10 | > 100 | > 100 | ≤ 1 | 1 to 10 | H (a selectivity ratio greater than 500 but less than or equal to 1000) | I (a selectivity ratio greater than 1000 but less than or equal to 2000)
7 | C=CC(=O)N1CCC2(CC=C(c3c(-c4cccnn4)c4c(N)ncnc4n3C)CC2)CC1 [Example 61, 1-(9-(4-amino-7-methyl-5-(pyridazin-3-yl)-7H-pyrrolo[2,3-d]pyrimidin-6-yl)-3-azaspiro[5.5]undec-8-en-3-yl)prop-2-en-1-one] |  | > 100 | > 100 |  | 10 to 30 | G (a selectivity ratio greater than 150 but less than or equal to 500) | G (a selectivity ratio greater than 150 but less than or equal to 500)
